Source: patent US20060063759A1, “Tricyclic steroid hormone nuclear receptor modulators” (priority 2002, published 2006)

Legend:
[1] = target: T1, human MR (Homo sapiens, UniProt P08235); assay: Mineralocorticoid Receptor Binding Assay ([3H]-aldosterone); conditions: [3H]-aldosterone binding, human MR expressed in Sf9 cells; read-out: MR Ki
T1 construct: The full length human MR gene is cloned from a human kidney or human brain cDNA library; His tag from the pAcHLT vector (own knowledge); made in house; host or cells: Sf9 insect cells (baculovirus, pAcHLT transfer vector)
T1 sequence (P08235 1-984): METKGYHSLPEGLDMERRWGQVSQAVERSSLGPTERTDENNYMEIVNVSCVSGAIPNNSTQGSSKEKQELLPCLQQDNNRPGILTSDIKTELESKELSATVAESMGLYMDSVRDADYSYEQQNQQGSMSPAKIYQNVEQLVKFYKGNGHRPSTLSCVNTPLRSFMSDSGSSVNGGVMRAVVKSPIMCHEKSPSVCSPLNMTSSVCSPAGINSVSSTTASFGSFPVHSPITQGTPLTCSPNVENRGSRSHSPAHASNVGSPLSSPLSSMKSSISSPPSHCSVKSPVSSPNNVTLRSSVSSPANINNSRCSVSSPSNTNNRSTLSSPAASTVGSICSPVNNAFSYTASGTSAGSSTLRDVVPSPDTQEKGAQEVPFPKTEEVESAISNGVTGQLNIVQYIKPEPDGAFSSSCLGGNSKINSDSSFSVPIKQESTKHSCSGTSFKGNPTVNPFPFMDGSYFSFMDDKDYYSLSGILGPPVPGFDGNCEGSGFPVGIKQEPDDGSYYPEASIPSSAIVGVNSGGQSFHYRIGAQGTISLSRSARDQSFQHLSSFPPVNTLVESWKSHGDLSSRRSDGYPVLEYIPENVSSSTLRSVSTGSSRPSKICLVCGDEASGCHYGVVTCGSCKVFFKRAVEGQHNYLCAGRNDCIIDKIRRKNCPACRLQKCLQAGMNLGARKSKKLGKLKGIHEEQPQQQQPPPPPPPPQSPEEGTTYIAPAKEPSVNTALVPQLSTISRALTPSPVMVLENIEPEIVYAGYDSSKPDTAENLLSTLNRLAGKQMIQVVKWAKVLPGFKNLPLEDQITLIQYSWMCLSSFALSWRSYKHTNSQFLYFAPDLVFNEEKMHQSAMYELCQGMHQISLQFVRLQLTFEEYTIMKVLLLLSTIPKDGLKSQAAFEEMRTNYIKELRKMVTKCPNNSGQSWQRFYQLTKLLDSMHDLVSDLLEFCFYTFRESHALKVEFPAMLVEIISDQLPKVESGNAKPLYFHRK
Method in brief: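 Lysate supernatant of Sf9 cells expressing full-length human MR (20-25 μg protein) was incubated with 0.5 nM [3H]-aldosterone and test compound in molybdate/Tris/phosphate/glycerol buffer, pH 7.5, ~16 h at 4 °C. Bound ligand was filtered and counted by scintillation; IC50 is the concentration halving [3H]-aldosterone binding.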

[2] = target: T2, glucocorticoid receptor (Homo sapiens, UniProt P04150); assay: Glucocorticoid Receptor Binding Assay ([3H]-dexamethasone, A549 cell extract); conditions: [3H]-dexamethasone binding, read-out: GR Ki
T2 construct: containing 50-200 ug of A549 cell extract and 1.86 nM [^3H]-dexamethasone; host or cells: A549 human lung epithelial cells (sonicated cell extract)
T2 sequence (P04150 1-777): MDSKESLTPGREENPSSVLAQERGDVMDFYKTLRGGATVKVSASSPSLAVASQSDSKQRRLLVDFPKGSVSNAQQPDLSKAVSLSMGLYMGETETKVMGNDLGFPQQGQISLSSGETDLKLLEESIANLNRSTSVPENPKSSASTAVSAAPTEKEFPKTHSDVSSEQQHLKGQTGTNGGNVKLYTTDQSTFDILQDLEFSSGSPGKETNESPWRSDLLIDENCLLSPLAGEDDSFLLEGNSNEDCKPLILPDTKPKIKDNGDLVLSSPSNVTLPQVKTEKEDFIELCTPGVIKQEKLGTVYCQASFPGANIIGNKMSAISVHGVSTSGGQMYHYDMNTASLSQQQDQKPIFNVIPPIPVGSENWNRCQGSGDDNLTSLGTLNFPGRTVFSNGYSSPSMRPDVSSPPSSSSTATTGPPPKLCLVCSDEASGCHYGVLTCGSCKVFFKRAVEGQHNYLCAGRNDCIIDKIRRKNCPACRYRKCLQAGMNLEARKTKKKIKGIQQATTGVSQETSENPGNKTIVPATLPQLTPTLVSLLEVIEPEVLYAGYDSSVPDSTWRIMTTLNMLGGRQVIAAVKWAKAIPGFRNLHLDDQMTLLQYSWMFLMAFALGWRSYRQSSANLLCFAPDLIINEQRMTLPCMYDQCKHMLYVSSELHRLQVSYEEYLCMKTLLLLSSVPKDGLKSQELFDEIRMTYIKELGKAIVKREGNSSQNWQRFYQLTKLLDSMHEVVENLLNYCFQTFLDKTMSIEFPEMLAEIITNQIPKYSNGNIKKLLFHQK
Method in brief: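 A549 cell extract (50–200 ug) incubated with 1.86 nM [3H]-dexamethasone and test compound for 16 h at 4 °C in Tris-HCl pH 7.2 buffer with glycerol and molybdate. Unbound radioligand removed by dextran-coated charcoal, then supernatant bound counts measured by scintillation.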

Compound | Ki [1] [µM] | Ki [2] [µM]
Cc1cccc2c1C(=Cc1ccc(NS(C)(=O)=O)cc1)c1ccccc1CC2 [Example 310] | < 0.5 | < 1
Cc1cccc2c1CCc1ccccc1/C2=C/c1cccc(NS(C)(=O)=O)c1 [Example 311] | < 0.5 | < 0.5
Cc1cccc2c1CCc1ccccc1/C2=C\c1cccc(NS(C)(=O)=O)c1 [Example 312] | < 0.5 | < 0.5
Cc1cccc2c1/C(=C\c1cccc(NS(C)(=O)=O)c1)c1ccccc1CC2 [Example 314] | < 0.5 | < 0.5
Cc1cccc2c1CCc1ccccc1/C2=C/c1ccc(NS(C)(=O)=O)cc1 [Example 315] | < 0.5 | < 10
Cc1cccc2c1CCc1ccccc1/C2=C\c1ccc(NS(C)(=O)=O)cc1 [Example 316] | < 0.5 | < 0.5
Cc1ccc2c(c1)CCc1ccccc1/C2=C/c1ccc(NS(C)(=O)=O)cc1 [Example 317] | < 0.5 | < 10
Cc1ccc2c(c1)CCc1ccccc1/C2=C\c1ccc(NS(C)(=O)=O)cc1 [Example 318] | < 0.5 | < 1
CSc1cccc2c1CCc1ccccc1C2=Cc1cccc(NS(C)(=O)=O)c1 [Example 319] | < 0.5 | < 0.5
CSc1ccc2c(c1)C(=Cc1cccc(NS(C)(=O)=O)c1)c1ccccc1CC2 [Example 320] | < 0.5 | < 0.5
CS(=O)(=O)Nc1cccc(C=C2c3ccccc3CCc3ccc(S(C)(=O)=O)cc32)c1 [Example 321] | < 0.5 | < 0.5
CSc1ccc2c(c1)/C(=C\c1cccc(NS(C)(=O)=O)c1)c1ccccc1CC2 [Example 322] | < 0.5 | < 0.5
CS(=O)(=O)Nc1cccc(/C=C2/c3ccccc3CCc3ccc(S(C)(=O)=O)cc32)c1 [Example 323] | < 0.5 | < 0.5
Cc1ccc2c(c1)CCc1cc(C)ccc1C2=Cc1cccc(NS(C)(=O)=O)c1 [Example 325] | < 0.5 | < 0.5
Cc1ccc2c(c1)CCc1ccccc1/C2=C/c1cccc(NS(C)(=O)=O)c1 [Example 326] | < 0.5 | < 0.5
Cc1ccc2c(c1)CCc1ccccc1/C2=C\c1cccc(NS(C)(=O)=O)c1 [Example 327] | < 0.5 | < 0.5
CS(=O)(=O)Nc1cccc(C=C2c3ccccc3CCc3cc(OCCc4ccccc4)ccc32)c1 [Example 330] | < 0.5 | < 0.5
COc1ccc2c(c1)CCc1cc(OC)ccc1C2=Cc1ccc(OCCN2CCCCC2)cc1 [Example 333] | < 0.5 | < 0.5
Oc1cccc(/C=C2/c3ccccc3CCc3cc(C(F)F)ccc32)c1 [Example 334] | < 0.5 | < 0.5
Oc1cccc(/C=C2\c3ccccc3CCc3cc(C(F)F)ccc32)c1 [Example 335] | < 0.5 | < 0.5

Continued, values first:

Ki [1] [µM] | Ki [2] [µM] | Compound
< 0.5 | < 10 | CS(=O)(=O)c1cccc(C=C2c3ccccc3CCc3ccccc32)c1 [Example 279, 5-(3-Methanesulfonyl-benzylidene)-10,11-dihydro-5H-dibenzo[a,d]cycloheptene]
< 0.5 | < 1 | N#CNc1cccc(C=C2c3ccccc3CCc3ccccc32)c1 [Example 280]
< 0.5 | < 10 | O=S(=O)(Nc1cccc(C=C2c3ccccc3CCc3ccccc32)c1)C(F)(F)F [Example 281]
< 0.5 | < 0.5 | Cc1ccccc1CC1c2ccccc2CCc2ccccc21 [Example 282]
< 0.5 | < 10 | FC(F)(F)c1ccccc1CC1c2ccccc2CCc2ccccc21 [Example 283]
< 0.5 | < 10 | Cc1ccc(CC2c3ccccc3CCc3ccccc32)cc1NS(C)(=O)=O [Example 286]
< 0.5 | < 0.5 | Nc1ccccc1CC1c2ccccc2CCc2ccccc21 [Example 287]
< 0.5 | < 1 | O=S(=O)(Nc1cccc(C=C2c3ccccc3CCc3cc(Cl)ccc32)c1)c1ccc(Cl)cc1 [Example 290]
< 0.5 | < 0.5 | O=S(=O)(Nc1cccc(C=C2c3ccccc3CCc3cc(Cl)ccc32)c1)c1ccc(F)cc1 [Example 291]
< 0.5 | < 0.5 | Cc1ccc(S(=O)(=O)Nc2cccc(C=C3c4ccccc4CCc4cc(Cl)ccc43)c2)cc1 [Example 292]
< 0.5 | < 0.5 | COc1ccc(S(=O)(=O)Nc2cccc(C=C3c4ccccc4CCc4cc(Cl)ccc43)c2)cc1 [Example 293]
< 0.5 | < 10 | O=S(=O)(Nc1cccc(C=C2c3ccccc3CCc3cc(Cl)ccc32)c1)c1ccc(Cl)c(Cl)c1 [Example 294]
< 0.5 | < 0.5 | O=S(=O)(Nc1cccc(C=C2c3ccccc3CCc3cc(Cl)ccc32)c1)c1cccs1 [Example 295]
< 0.5 | < 10 | Cn1cnc(S(=O)(=O)Nc2cccc(C=C3c4ccccc4CCc4cc(Cl)ccc43)c2)c1 [Example 296]
< 0.5 | < 10 | CC(=O)Nc1nc(C)c(S(=O)(=O)Nc2cccc(C=C3c4ccccc4CCc4cc(Cl)ccc43)c2)s1 [Example 297]
< 0.5 | < 10 | O=C(CO)c1cccc(C=C2c3ccccc3CCc3cc(Cl)ccc32)c1 [Example 298]
< 0.5 | < 1 | COCC(=O)Nc1cccc(C=C2c3ccccc3CCc3cc(Cl)ccc32)c1 [Example 299]
< 0.5 | < 1 | O=C(CO)Nc1cccc(C=C2c3ccccc3CCc3cc(Cl)ccc32)c1 [Example 300]
< 0.5 | < 0.5 | Cc1ccc2c(c1)C(=Cc1cccc(NS(C)(=O)=O)c1)c1ccccc1CC2 [Example 301]
< 0.5 | < 0.5 | Cc1ccc2c(c1)CCc1ccccc1C2=Cc1cccc(NS(C)(=O)=O)c1 [Example 302]
< 0.5 | < 0.5 | Cc1cccc2c1CCc1ccccc1C2=Cc1cccc(NS(C)(=O)=O)c1 [Example 303]
< 0.5 | < 0.5 | Cc1cccc2c1C(=Cc1cccc(NS(C)(=O)=O)c1)c1ccccc1CC2 [Example 304]
< 0.5 | < 1 | Cc1ccc2c(c1)C(=Cc1ccc(NS(C)(=O)=O)cc1)c1ccccc1CC2 [Example 305]
< 0.5 | < 1 | CS(=O)(=O)Nc1cccc(/C=C2/c3ccccc3CCc3cc(-c4ccccc4)ccc32)c1 [Example 306]
< 0.5 | < 1 | Cc1cccc2c1CCc1ccccc1C2=Cc1ccc(NS(C)(=O)=O)cc1 [Example 307]
< 0.5 | < 10 | CS(=O)(=O)Nc1cccc(/C=C2\c3ccccc3CCc3cc(-c4ccccc4)ccc32)c1 [Example 308]
< 0.5 | < 1 | Cc1ccc2c(c1)CCc1ccccc1C2=Cc1ccc(NS(C)(=O)=O)cc1 [Example 309]
